From US9458176B2, “Tetrahydroimidazo(1,5-D)[1,4]oxazepine derivative” (Eisai R&D Management Co., Ltd., priority 2013, dated 2016) come the findings set out here.

SMILES strings stand for the structures.

One may read the IC50 as the concentration that inhibits the measured activity by half.

In the first assay the target is human mGluR2 (Homo sapiens (Human), UniProt Q14416). The experiment in a line: [35S]GTPγS binding assay (Affinity to mGluR2). Format: biochemical. Conditions: cell membrane fraction of HEK293 cells stably expressing human mGluR2; glutamic acid 10 μM. On the procedure: (Preparation of Cell Membrane Fraction of HEK293 Cells Stably Expressing Human Metabotropic Glutamate Receptor 2 (mGluR2))
Sequence of human mGluR2 (Q14416 19-872): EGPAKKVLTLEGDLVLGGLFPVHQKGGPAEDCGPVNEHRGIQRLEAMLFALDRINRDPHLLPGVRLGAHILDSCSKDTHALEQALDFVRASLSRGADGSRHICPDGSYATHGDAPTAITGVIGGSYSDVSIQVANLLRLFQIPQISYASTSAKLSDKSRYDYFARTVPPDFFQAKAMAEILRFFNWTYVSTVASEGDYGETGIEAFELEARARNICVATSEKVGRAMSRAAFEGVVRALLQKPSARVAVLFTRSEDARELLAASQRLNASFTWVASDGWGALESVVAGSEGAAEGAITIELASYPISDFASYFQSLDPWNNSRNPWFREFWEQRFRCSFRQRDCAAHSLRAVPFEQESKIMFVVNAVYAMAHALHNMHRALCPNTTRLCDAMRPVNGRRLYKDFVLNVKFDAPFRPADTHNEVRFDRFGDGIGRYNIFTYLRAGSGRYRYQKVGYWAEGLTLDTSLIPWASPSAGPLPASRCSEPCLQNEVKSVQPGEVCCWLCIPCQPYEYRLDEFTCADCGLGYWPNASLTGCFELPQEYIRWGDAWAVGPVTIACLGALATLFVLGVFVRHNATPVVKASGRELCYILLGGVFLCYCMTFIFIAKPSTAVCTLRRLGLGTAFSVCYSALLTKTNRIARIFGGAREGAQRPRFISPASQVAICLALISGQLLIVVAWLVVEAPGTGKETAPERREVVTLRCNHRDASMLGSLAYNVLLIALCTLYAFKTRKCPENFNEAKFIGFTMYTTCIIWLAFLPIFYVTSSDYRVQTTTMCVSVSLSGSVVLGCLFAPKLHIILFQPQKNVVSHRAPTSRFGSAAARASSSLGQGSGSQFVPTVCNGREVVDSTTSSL
HEK293 cells stably expressing human mGluR2 and human glutamate transporter SLC1A3 were cultured in a Dulbecco's modified Eagle's medium with 10% fetal bovine serum (50 units/mL of penicillin, 50 μg/mL of streptomycin, 60 μg/mL of geneticin, 400 μg/mL of hygromycin B and 2 mM of glutamine) at 37° C. under 5% CO2. Confluent cell cultures were washed twice with PBS(−), and then scraped off with a cell scraper, and subjected to centrifugal separation at 4° C. and 1500 rpm for 5 minutes for collecting cells. The centrifuged sediment (cell pellet) was homogenized in a 20 mM HEPES buffer containing 10 mM EDTA (pH 7.4) by using sonicator and centrifuged at 4° C. and 1500×g for 30 minutes. The supernatant (soluble fraction) was subjected to the centrifugal separation at 4° C. and 40,000×g for 30 minutes, and thus, insoluble fraction was obtained. After additional centrifugally washing the obtained fraction with 20 mM HEPES buffer containing 10 mM EDTA (pH 7.4), the pellet was centrifugally suspended with a 20 mM HEPES buffer containing 0.1 mM EDTA, and the cell membrane fraction was obtained by the centrifugal separation at 4° C. and 40,000×g for 30 minutes. The thus obtained cell membrane fraction was suspended in a 20 mM HEPES buffer containing 0.1 mM EDTA in a protein concentration of 3 mg/mL, which was stored at −80° C.
([^35S]GTPγS Binding Assay)
The frozen cell membrane fraction prepared as described above was thawed before use, and the resultant was diluted with a buffer for a binding assay (final concentrations: 20 mM HEPES, 100 mM NaCl, 1 mM MgCl2, 3 μM GDP, 300 μg/mL saponin, 0.1% BSA). The compound of each example was added to a cell membrane fraction containing 1.8 to 3 μg/assay of membrane protein on a plate, followed by incubation at room temperature for 30 minutes. Thereafter, with glutamic acid (in a final concentration of 10 μM) added thereto, incubation was performed at room temperature for 15 minutes, and thereafter, [^35S]GTPγS (in a final concentration of 0.8 kBq) and 588 μg WGA-SPA beads were added thereto, followed by incubation at room temperature for 1 hour. After the incubation, the plate was subjected to the centrifugal separation at 2,500 rpm and room temperature, and then, membrane cell binding radioactivity was measured with a top count.
A [^35S]GTPγS binding amount obtained by performing the above-described reaction in the absence of glutamic acid was defined as nonspecific binding, and a difference from a [^35S]GTPγS binding amount obtained in the presence of glutamic acid was defined as specific binding. On the basis of ratios of inhibiting the specific binding at various concentrations of the compounds of the respective examples, inhibition curves were obtained. Concentrations of the compounds of the respective examples at which the specific [^35S]GTPγS binding amount was suppressed by 50% (IC50 values) were calculated on the basis of the inhibition curves and shown in Tables 8 and 9.
In general terms: Binding of GTPγS marks nucleotide exchange on a G protein.
Consider `Cc1cc(-c2nc(-c3ccc(OC(F)(F)F)cc3)n3c2CCO[C@H](C)C3)cc(CF)n1` [Example 86], for which the IC50 is 4.4 nM.

As for `Cc1cc(-c2nc(-c3cccc(OC(F)(F)F)c3)n3c2CCO[C@H](C)C3)cc(C)n1` [Example 64], the half-inhibitory concentration (IC50) worked out at 31.2 nM.

Compound `Cc1cc(-c2nc(-c3ccc(C(F)(F)F)c(F)c3)n3c2CCOCC3)cc(C)n1` [Example 107] registered an IC50 of 54 nM.

Turning to `COc1cc(-c2nc(-c3ccnc(C)c3)c3n2C[C@@H](C)OCC3)ccc1C` [Example 55], the concentration for half-maximal inhibition (IC50) came out at 21.9 nM.

`Cc1cc(-c2nc(-c3ccc(Cl)c(C(F)(F)F)c3)n3c2CCO[C@H](C)C3)cc(C)n1` [Example 140]: the IC50 is 5.7 nM.

On to `COc1cc(-c2nc(-c3ccnc(CF)c3)c3n2C[C@@H](C)OCC3)ccc1Cl` [Example 12, (R)-3-(4-chloro-3-methoxyphenyl)-1-(2-(fluoromethyl)pyridin-4-yl)-6-methyl-5,6,8,9-tetrahydroimidazo[1,5-d][1,4]oxazepine], for which the IC50 was determined as 28.3 nM.

`COc1cc(-c2nc(-c3ccnc(C)c3)c3n2C[C@@H](CF)OCC3)ccc1Cl` [Example 26, (S)-3-(4-chloro-3-methoxyphenyl)-6-fluoromethyl-1-(2-methylpyridin-4-yl)-5,6,8,9-tetrahydroimidazo[1,5-d][1,4]oxazepine] registered an IC50 of 13.5 nM.

In turn, `Cc1cc(-c2nc(-c3ccc(Cl)c(C)c3)n3c2CCO[C@H](C)C3)cc(C)n1` [Example 52] came in with an IC50 of 20.5 nM.

For `Cc1cc(-c2nc(-c3ccc(OC(F)(F)F)c(Cl)c3)n3c2CCO[C@H](C)C3)cc(C)n1` [Example 133], the IC50 stood at 4.4 nM.

As for `Cc1cc(-c2nc(-c3ccc(OC(F)F)c(Cl)c3)n3c2CCO[C@H](C)C3)cc(C)n1` [Example 32, (R)-3-(3-chloro-4-(difluoromethoxy)phenyl)-1-(2,6-dimethylpyridin-4-yl)-6-methyl-5,6,8,9-tetrahydroimidazo[1,5-d][1,4]oxazepine], the IC50 was found to be 2.8 nM.

In turn, `Cc1cc(-c2nc(-c3ccc(Cl)cc3)n3c2CCO[C@H](C)C3)cc(C)n1` [Example 61] returned an IC50 of 21.7 nM.

In turn, `CCc1ccc(-c2nc(-c3ccnc(C)c3)c3n2C[C@@H](C)OCC3)cc1OC` [Example 101] gave an IC50 of 7.6 nM.

With `Cc1cc(-c2nc(-c3ccc(Cl)c(OC(F)(F)F)c3)n3c2CCOCC3)cc(C)n1` [Example 48], the IC50 was determined as 40 nM.

As for `COc1cc(-c2nc(-c3cc(C)nc(C)c3)c3n2C[C@@H](CF)OCC3)ccc1C(F)(F)F` [Example 29, (S)-1-(2,6-dimethylpyridin-4-yl)-6-(fluoromethyl)-3-(3-methoxy-4-(trifluoromethyl)phenyl)-5,6,8,9-tetrahydroimidazo[1,5-d][1,4]oxazepine], the IC50 stood at 3.8 nM.

With `Cc1cc(-c2nc(-c3ccc(Cl)c(C)c3)n3c2CCOCC3)cc(C)n1` [Example 110], the IC50 turned out to be 64.2 nM.

As to `Cc1cc(-c2nc(-c3ccc(OC(F)(F)F)c(C#N)c3)n3c2CCOCC3)cc(C)n1` [Example 116], the IC50 came out at 33.8 nM.

The compound `COc1cc(-c2nc(-c3cc(C)nc(C(F)F)c3)c3n2C[C@@H](C)OCC3)ccc1C` [Example 80] gave an IC50 of 6.3 nM.

As for `Cc1cc(-c2nc(-c3ccc(OC(F)F)c(F)c3)n3c2CCOCC3)cc(C)n1` [Example 119], the IC50 is 31.8 nM.

`Cc1cc(-c2nc(-c3ccc(F)c(OCC(C)C)c3)n3c2CCOCC3)cc(C)n1` [Example 95]: the IC50 stood at 49.5 nM.

`Cc1cc(-c2nc(-c3ccc(Cl)c(C(F)F)c3)n3c2CCO[C@H](C)C3)cc(C)n1` [Example 131]: the IC50 turned out to be 25.5 nM.

`Cc1cc(-c2nc(-c3ccc(Cl)c(Cl)c3)n3c2CCO[C@H](CF)C3)ccn1` [Example 75] returned an IC50 of 31 nM.

In turn, `Cc1cc(-c2nc(-c3ccc(C(F)(F)F)c(Cl)c3)n3c2CCOCC3)cc(C)n1` [Example 109] returned an IC50 of 9.1 nM.

On to `Cc1cc(-c2nc(-c3ccc(F)c(OCCF)c3)n3c2CCO[C@H](C)C3)cc(C)n1` [Example 5, (R)-1-(2,6-dimethylpyridin-4-yl)-3-(4-fluoro-3-(2-fluoroethoxy)phenyl)-6-methyl-5,6,8,9-tetrahydroimidazo[1,5-d][1,4]oxazepine], for which the IC50 is 26.5 nM.

In the case of `Cc1cc(-c2nc(-c3ccc(OC(F)(F)F)c(C)c3)n3c2CCOCC3)ccn1` [Example 118], the IC50 was determined as 10.9 nM.

With `COc1cc(-c2nc(-c3cc(C)nc(C(F)F)c3)c3n2C[C@@H](CF)OCC3)ccc1C` [Example 81], the IC50 came to 7.1 nM.

`Cc1cc(-c2nc(-c3ccc(Cl)c(OC(F)(F)F)c3)n3c2CCO[C@H](C)C3)cc(C)n1` [Example 68] came in with an IC50 of 13.2 nM.

In turn, `COc1ccc(-c2nc(-c3cc(C)nc(C)c3)c3n2C[C@@H](C)OCC3)cc1F` [Example 59] came in with an IC50 of 96.3 nM.

Staying with this assay, now noted: cell membrane fraction of HEK293 cells stably expressing human mGluR2; glutamic acid 10 μM; inhibition of specific [35S]GTPγS binding.
The compound `CCOc1cc(-c2nc(-c3cc(C)nc(C)c3)c3n2C[C@@H](C)OCC3)ccc1C` [Example 225] came in with an IC50 of 3.9 nM.

`COc1cc(-c2nc(-c3cc(C)nc(CO)c3)c3n2C[C@@H](CF)OCC3)ccc1C(F)(F)F` [Example 156] displayed an IC50 of 7.3 nM.

For the compound `Cc1cc(-c2nc(-c3ccc(C)c(OCC(C)C)c3)n3c2CCO[C@H](C)C3)cc(C)n1` [Example 227], the IC50 is 22 nM.

The compound `Cc1cc(-c2nc(-c3ccc(C(F)(F)F)cc3)n3c2CCO[C@H](C)C3)cc(C)n1` [Example 142] yielded an IC50 of 20.2 nM.

Turning to `Cc1cc(-c2nc(-c3ccc(OC(F)F)c(CO)c3)n3c2CCO[C@H](C)C3)cc(C)n1` [Example 235], the IC50 was 21.7 nM.

Turning to `Cc1cc(-c2nc(-c3ccc(OC(F)(F)F)c(F)c3)n3c2CCO[C@H](CF)C3)cc(CF)n1` [Example 202], the IC50 is 14 nM.

`COc1cc(-c2nc(-c3cc(C)nc(CF)c3)c3n2C[C@@H](CF)OCC3)ccc1C(F)(F)F` [Example 201] registered an IC50 of 2.4 nM.

Compound `Cc1cc(-c2nc(-c3ccc(C)c(OCC4CC4)c3)n3c2CCO[C@H](C)C3)cc(C)n1` [Example 226] came in with an IC50 of 10.5 nM.

The compound `COc1cc(-c2nc(-c3ccnc(C)c3)c3n2C[C@@H](CF)OCC3)ccc1OC(F)F` [Example 164] displayed an IC50 of 36.8 nM.

`CCOc1cc(-c2nc(-c3cc(C)nc(C)c3)c3n2C[C@@H](C)OCC3)ccc1CC` [Example 220]: the IC50 was 5.9 nM.

`Cc1cc(-c2nc(-c3ccc(F)c(C(F)(F)F)c3)n3c2CCO[C@H](CF)C3)ccn1` [Example 174] returned an IC50 of 24.3 nM.

As for `Cc1cc(-c2nc(-c3ccc(OC(F)(F)F)c(CF)c3)n3c2CCOCC3)cc(C)n1` [Example 211], the IC50 came to 27.1 nM.

`COc1cc(-c2nc(-c3cc(C)nc(CF)c3)c3n2C[C@@H](C)OCC3)ccc1C(F)(F)F` [Example 200] showed an IC50 of 4.4 nM.

`Cc1cc(-c2nc(-c3ccc(F)c(OC(F)F)c3)n3c2CCO[C@H](C)C3)cc(C)n1` [Example 184]: the IC50 amounted to 13.7 nM.

`COc1ccc(-c2nc(-c3cc(C)nc(C(F)F)c3)c3n2C[C@@H](C)OCC3)cc1Cl` [Example 190] registered an IC50 of 42.2 nM.

`COc1cc(-c2nc(-c3cc(C)nc(C)c3)c3n2C[C@@H](C)OCC3)ccc1OC(F)F` [Example 148] yielded an IC50 of 9.6 nM.

With `Cc1cc(-c2nc(-c3ccc(OC(F)(F)F)c(CF)c3)n3c2CCO[C@H](C)C3)cc(C)n1` [Example 231], the half-maximal inhibitory concentration (IC50) came out at 2.4 nM.

The compound `COc1cc(-c2nc(-c3cc(C)nc(C(F)F)c3)c3n2C[C@@H](CF)OCC3)ccc1Cl` [Example 176] came in with an IC50 of 38.8 nM.

Consider `Cc1cc(-c2nc(-c3ccc(OC4CC4)c(Cl)c3)n3c2CCO[C@H](C)C3)cc(CF)n1` [Example 205], for which the half-maximal inhibitory concentration (IC50) amounted to 5.3 nM.

Regarding `Cc1cc(-c2nc(-c3ccc(OC(F)F)c(C)c3)n3c2CCO[C@H](C)C3)cc(CO)n1` [Example 177], the IC50 amounted to 29.4 nM.

For `COc1ccc(-c2nc(-c3cc(C)nc(C(F)F)c3)c3n2C[C@@H](C)OCC3)cc1C` [Example 178], the IC50 was 17.8 nM.

Compound `Cc1cc(-c2nc(-c3ccc(C)c(C(F)(F)F)c3)n3c2CCO[C@H](C)C3)cc(C)n1` [Example 183] showed an IC50 of 7.4 nM.
